Source: publication PMC7551886, “Antitumour Effects of Astaxanthin and Adonixanthin on Glioblastoma” (Marine Drugs, 2020)

How the values were obtained:
Fibronectin mRNA = test: qRT-PCR of Fibronectin mRNA in GL261; format: cell-based, mouse; conditions: GL261, 10 µM, 48 h
Protocol: To evaluate the effect of astaxanthin and adonixanthin on the expression of Fibronectin mRNA expression, we performed quantitative real-time reverse transcription polymerase chain reaction (qRT-PCR) analysis. GL261 cell was seeded at 2.5 × 10^4 cells well in 24-well plates with culture medium supplemented with 10% FBS. After 24 h of incubation, the medium was changed to DMEM containing 10% FBS and 0.1% DMSO PBS, 300 μM temozolomide, 10 µM astaxanthin, or 10 µM adonixanthin was added for 48 h. After 48 h of treatment, RNA was isolated from GL261 cells using Nucleo Spin RNA II (Takara, Shiga, Japan). RNA concentrations were determined using NanoVue Plus (GE Healthcare Japan, Tokyo, Japan). Single-strand cDNAs were synthesized from the isolated RNAs via reverse transcription with a PrimeScript RT Reagent Kit (Perfect Real Time; Takara). Quantitative real-time RT-PCR was performed using TB Green Premix Ex Taq II (Tli RNaseH Plus; Takara) and a TP800 Thermal Cycler Dice Real Time System (Takara). All procedures were carried out in accordance with the manufacturer’s instructions. […] The results are expressed as relative gene expression levels normalized to that of β-actin.

[1] = system: GL261 cells (intracranial injection); test: Murine orthotopic glioblastoma model; format: in vivo, mouse; conditions: oral 10 and 30 mg/kg for 10 days, 2 weeks after GL261 cell injection
Protocol: Murine glioblastoma cell (GL261) transplantation was performed as previously described. Briefly, mice received an intracranial injection of 1 × 10^5 cells in 2 µL of PBS using a Hamilton microliter syringe at the following coordinates: 1 mm anterior, 2 mm lateral (left of middle) to bregma, at a depth of 3 mm from the dural surface. This protocol was completed using a stereotactic frame. In the experiment of the murine orthotopic glioblastoma model, oral administration of each astaxanthin (10 and 30 mg/kg) and adonixanthin (10 and 30 mg/kg) was initiated 3 days after intracranial injection of GL261 cells and was continued for 10 days. In the experiment of the brain tissue absorption with oral astaxanthin or adonixanthin, after one week of adaptation, ICR mice were randomly divided into the following three groups: control group, astaxanthin group (50 mg/kg), and adonixanthin group (50 mg/kg). Mice were orally administered each reagent suspended in olive oil (5 mL/kg) by the daily single dose for 10 days. The control group was treated by olive oil alone (5 mL/kg). Mice were euthanized and […] perfused with cold saline for 2 min at room temperature. […] Pictures were taken using an All-in-One Fluorescence Microscope (BZ-X710; Keyence, Osaka, Japan). We assessed the maximum cross-sectional area of the tumour and tumour volume as described previously.

[2] = Body weight of mice during administration; format: in vivo, mouse
Protocol: In the experiment of the murine orthotopic glioblastoma model, oral administration of each astaxanthin (10 and 30 mg/kg) and adonixanthin (10 and 30 mg/kg) was initiated 3 days after intracranial injection of GL261 cells and was continued for 10 days. In the experiment of the brain tissue absorption with oral astaxanthin or adonixanthin, after one week of adaptation, ICR mice were randomly divided into the following three groups: control group, astaxanthin group (50 mg/kg), and adonixanthin group (50 mg/kg). Mice were orally administered each reagent suspended in olive oil (5 mL/kg) by the daily single dose for 10 days. The control group was treated by olive oil alone (5 mL/kg).

Row | Structure (SMILES) | mRNA level of fibronectin (Fibronectin mRNA) | tumour enlargement (tumour area and volume) [1] | changes in body weight ([2]; 10 days of administration) | body weight of treated mice ([2]; after 10 days of administration, vehicle 34.72 ± 2.05 g) [g]
1 | CC1=C(/C=C/C(C)=C/C=C/C(C)=C/C=C/C=C(C)/C=C/C=C(C)/C=C/C2=C(C)C(=O)[C@@H](O)CC2(C)C)C(C)(C)C[C@H](O)C1 [Adonixanthin, adonixanthin] | decreased | significantly suppressed tumour enlargement | – | –
2 | CC1=C(/C=C/C(C)=C/C=C/C(C)=C/C=C/C=C(C)/C=C/C=C(C)/C=C/C2=C(C)C(=O)[C@@H](O)CC2(C)C)C(C)(C)C[C@H](O)C1=O [Astaxanthin, astaxanthin] | decreased | significantly suppressed tumour enlargement | No significant changes | 35.50 ± 1.95
